The source of these data is patent US9120749B2, “Quinoline derivatives and MELK inhibitors containing the same” (ONCOTHERAPY SCIENCE, INC., priority 2010, dated 2015).

By IC50 is commonly meant the concentration that gives 50% inhibition.

Like-named read-outs stand apart in the source and are kept apart here.

The target of one test is MELK (Homo sapiens, UniProt Q14680). The test can be described thus: Kinase assay: MELK activity, phosphorylation of FITC-labeled histone H3 peptide measured by IMAP fluorescence polarization. Type of test: biochemical. An outline of the steps: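 Fluorescence polarization was measured 0.5 h (room temperature) after quenching with threefold volume of progressive binding solution. Test compounds from 12.5 mM DMSO stocks were assayed at 1% DMSO.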
For orientation: Polarisation of emitted light reports the rotation of a fluorescent probe.

Another test relates to T47D cells. The experiment in a line: Cell-based assay: anti-proliferative activity, Cell Counting Kit-8, 72 hours (T47D). The following applies: Homo sapiens, T47D, 72 h. An outline of the steps: (§1)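 Proliferation read with Cell Counting Kit-8 after 72 hours of inhibitor treatment, from seeding of 2,000–3,000 cells/well. Lines: T47D, A549, BT-549; HT-1197, lacking MELK by western blot, served as negative control. IC50 derived.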
A general note: Tetrazolium assays rely on reduction of a dye to a coloured formazan, in cell work by metabolically active cells.

Another test concerns A549 cells. The test can be described thus: Cell-based assay: anti-proliferative activity, Cell Counting Kit-8, 72 hours (A549). The following applies: Homo sapiens, A549, 72 h, 72 hours. An outline of the steps: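 Cell Counting Kit-8 read-out of A549 growth after 72 hours of inhibitor exposure, cells plated in 96-well format. Values reported as IC50.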
For a further test, the system named is HT-1197 cells. The test can be described thus: Cell-based assay: anti-proliferative activity, Cell Counting Kit-8, 72 hours (HT-1197, negative control without MELK expression). The following applies: Homo sapiens, HT1197, 72 h, HT1197 cells (negative control), 72 hours. An outline of the steps: as §1
A further test concerns DU4475 cells. The test can be described thus: Cell-based assay: anti-proliferative activity, Cell Counting Kit-8, 72 hours (DU4475). The following applies: Homo sapiens, DU-4475, 72 h.
The mark [1] stands for this setting: read-out: IC50 (μM) (kinase assay).

MELK, sequence (Q14680 whole entry, looked up): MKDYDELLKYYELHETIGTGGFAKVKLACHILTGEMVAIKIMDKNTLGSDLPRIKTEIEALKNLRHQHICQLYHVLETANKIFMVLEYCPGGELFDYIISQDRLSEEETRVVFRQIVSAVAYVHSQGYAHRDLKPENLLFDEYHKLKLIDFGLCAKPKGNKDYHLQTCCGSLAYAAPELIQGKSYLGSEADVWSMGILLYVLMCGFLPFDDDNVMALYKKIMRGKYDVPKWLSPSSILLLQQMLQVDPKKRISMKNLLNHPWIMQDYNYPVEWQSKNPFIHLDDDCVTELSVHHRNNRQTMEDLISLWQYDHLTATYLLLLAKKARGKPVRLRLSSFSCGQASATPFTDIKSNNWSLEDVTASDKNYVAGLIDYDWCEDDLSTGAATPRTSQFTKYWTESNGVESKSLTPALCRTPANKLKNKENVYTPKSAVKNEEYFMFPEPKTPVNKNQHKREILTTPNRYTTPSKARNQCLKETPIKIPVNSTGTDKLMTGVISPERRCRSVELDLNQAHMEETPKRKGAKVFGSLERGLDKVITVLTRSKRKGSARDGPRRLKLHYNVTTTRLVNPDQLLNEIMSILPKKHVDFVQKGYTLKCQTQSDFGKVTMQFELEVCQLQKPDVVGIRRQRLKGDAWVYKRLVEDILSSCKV

For the compound `O=C(c1cnc2ccc(-c3cc(F)c(O)c(Cl)c3)cc2c1N[C@H]1C[C@H]2CC[C@@H](C1)N2)C1CC1` [Example 621, (4-((1R,3r,5S)-8-azabicyclo[3.2.1]octan-3-ylamino)-6-(3-chloro-5-fluoro-4-hydroxyphenyl)quinolin-3-yl)(cyclopropyl)methanone], the IC50 on MELK (setting [1]) was 0.01 µM; with T47D cells it was 0.24 µM; with A549 cells it was 0.91 µM; with HT-1197 cells, 3.9 µM; in the test on DU4475 cells, 0.11 µM.
For `CN1CCN(c2c(C(=O)C3CC3)cnc3ccc(-c4cc(F)c(O)c(Cl)c4)cc23)CC1` [Example 534, (6-(3-chloro-5-fluoro-4-hydroxyphenyl)-4-(4-methylpiperazin-1-yl)quinolin-3-yl)(cyclopropyl)methanone], the IC50 was determined as 0.025 µM at MELK (setting [1]); 1.1 µM in the test on T47D cells; 1.4 µM with A549 cells; 2.8 µM with HT-1197 cells; 0.96 µM in the test with DU4475 cells.
On to `NC1CCN(c2ccc(Nc3c(C(=O)C4CC4)cnc4ccc(-c5cc(F)c(O)c(Cl)c5)cc34)cn2)CC1` [Example 557, (4-(6-(4-aminopiperidin-1-yl)pyridin-3-ylamino)-6-(3-chloro-5-fluoro-4-hydroxyphenyl)quinolin-3-yl)(cyclopropyl)methanone], for which the IC50 against MELK was determined as 0.0056 µM; in the test with T47D cells it was 0.11 µM; with A549 cells, 0.52 µM; with HT-1197 cells, 3.1 µM; in the test on DU4475 cells, 0.18 µM.
Regarding `CN(C)CCc1ccc(Nc2c(C(=O)C3CC3)cnc3ccc(-c4cc(F)c(O)c(Cl)c4)cc23)cc1` [Example 615, (6-(3-chloro-5-fluoro-4-hydroxyphenyl)-4-(4-(2-(dimethylamino)ethyl)phenylamino)quinolin-3-yl)(cyclopropyl)methanone], the IC50 was 0.0082 µM at MELK (setting [1]); 0.17 µM in the test on T47D cells; 0.086 µM in the test on A549 cells; 1.4 µM with HT-1197 cells; 0.042 µM in the test with DU4475 cells.
For `O=C(c1cnc2ccc(-c3cc(F)c(O)c(Cl)c3)cc2c1Nc1cnn(C2CCNCC2)c1)C1CC1` [Example 520], the IC50 at MELK (setting [1]) worked out at 0.0016 µM; in the test with T47D cells, 0.081 µM; in the test on A549 cells it was 0.52 µM; with HT-1197 cells, 10 µM; in the test with DU4475 cells, 0.042 µM.
In the case of `COc1cc(-c2ccc3ncc(C(=O)C4CC4)c(N4CCC(C5CCNCC5)CC4)c3c2)cc(Cl)c1O` [Example 595, (4-(4,4′-bipiperidin-1-yl)-6-(3-chloro-4-hydroxy-5-methoxyphenyl)quinolin-3-yl)(cyclopropyl)methanone], the IC50 on MELK (setting [1]) is 0.0042 µM; with T47D cells, 0.41 µM; in the test with A549 cells, 0.57 µM; in the test on HT-1197 cells, 3.4 µM; with DU4475 cells, 0.64 µM.
For `COc1cc(-c2ccc3ncc(C(=O)C4CC4)c(Nc4cnc(N5CCC(N)C5)nc4)c3c2)cc(Cl)c1O` (stereo not shown) [Example 582, (4-(2-(3-aminopyrrolidin-1-yl)pyrimidin-5-ylamino)-6-(3-chloro-4-hydroxy-5-methoxyphenyl)quinolin-3-yl)(cyclopropyl)methanone], the IC50 at MELK (setting [1]) was 0.0031 µM; in the test on T47D cells, 0.052 µM; in the test with A549 cells, 0.097 µM; in the test on HT-1197 cells, 1.1 µM; in the test with DU4475 cells, 0.064 µM.
On to `O=C(c1cnc2ccc(-c3cc(Cl)c(O)c(Cl)c3)cc2c1Nc1ccc(NC2CCCNC2)nc1)C1CC1` (stereo not shown) [Example 610, cyclopropyl(6-(3,5-dichloro-4-hydroxyphenyl)-4-(6-(piperidin-3-ylamino)pyridine-3-ylamino)quinolin-3-yl)methanone], for which the IC50 on MELK (setting [1]) turned out to be 0.0017 µM; in the test with T47D cells, 0.22 µM; in the test on A549 cells, 0.39 µM; in the test with HT-1197 cells, 10 µM; in the test with DU4475 cells, 0.073 µM.
As for `COc1cc(-c2cc3c(Nc4ccc(CN(C)C)cc4)c(C(=O)C4CC4)cnc3cc2F)cc(Cl)c1O` [Example 540, (6-(3-chloro-4-hydroxy-5-methoxyphenyl)-4-(4-((dimethylamino)methyl)phenylamino)-7-fluoroquinolin-3-yl)(cyclopropyl)methanone], the IC50 worked out at 0.064 µM at MELK (setting [1]); 0.89 µM in the test with T47D cells; 0.25 µM with A549 cells; 3.7 µM in the test with HT-1197 cells; 0.35 µM with DU4475 cells.
As for `COc1cc(-c2ccc3ncc(C(=O)C4CC4)c(Nc4ccc(N5CCCC(N)C5)nc4)c3c2)cc(Cl)c1O` (stereo not shown) [Example 554, (4-(6-(3-aminopiperidin-1-yl)pyridin-3-ylamino)-6-(3-chloro-4-hydroxy-5-methoxyphenyl)quinolin-3-yl)(cyclopropyl)methanone], the IC50 on MELK (setting [1]) stood at 0.0031 µM; with T47D cells, 0.068 µM; in the test on A549 cells it was 0.08 µM; in the test on HT-1197 cells, 1.9 µM; in the test on DU4475 cells, 0.025 µM.
For the compound `CC(=O)c1cnc2ccc(-c3cc(F)c(O)c(Cl)c3)cc2c1Nc1cnc(N2CCNCC2)nc1` [Example 594, 1-(6-(3-chloro-5-fluoro-4-hydroxyphenyl)-4-(2-(piperazin-1-yl)pyrimidin-5-ylamino)quinolin-3-yl)ethanone], the IC50 on MELK (setting [1]) was 0.0048 µM; in the test with T47D cells it was 0.025 µM; in the test with A549 cells, 0.063 µM; in the test on HT-1197 cells, 0.66 µM; with DU4475 cells, 0.048 µM.
On to `CN(C)Cc1ccc(Nc2c(C(=O)C3CC3)cnc3cc(F)c(-c4cc(F)c(O)c(Cl)c4)cc23)cc1` [Example 541, (6-(3-Chloro-5-fluoro-4-hydroxyphenyl)-4-(4-((dimethylamino)methyl)phenylamino)-7-fluoroquinolin-3-yl)(cyclopropyl)methanone], for which the IC50 at MELK (setting [1]) turned out to be 0.077 µM; with T47D cells, 0.42 µM; in the test on A549 cells, 0.076 µM; in the test with HT-1197 cells, 1.1 µM; in the test with DU4475 cells, 0.087 µM.
The corresponding values for `NC[C@H]1CC[C@@H](Nc2c(C(=O)C3CC3)cnc3ccc(-c4cc(F)c(O)c(Cl)c4)cc23)CC1` [Example 515, (4-((1s,4s)-4-(aminomethyl)cyclohexylamino)-6-(3-chloro-5-fluoro-4-hydroxyphenyl)quinolin-3-yl)(cyclopropyl)methanone] are 0.0034 µM, 0.23 µM, 0.83 µM, 3.9 µM and 0.12 µM.
Take `NC1CCCN(c2ncc(Nc3c(C(=O)C4CC4)cnc4ccc(-c5cc(F)c(O)c(Cl)c5)cc34)cn2)C1` (stereo not shown) [Example 626, (4-(2-(3-aminopiperidin-1-yl)pyrimidin-5-ylamino)-6-(3-chloro-5-fluoro-4-hydroxyphenyl)quinolin-3-yl)(cyclopropyl)methanone]: the IC50 on MELK (setting [1]) came out at 0.0011 µM; in the test with T47D cells it was 0.0051 µM; in the test with A549 cells, 0.0073 µM; in the test on HT-1197 cells, 0.05 µM; in the test with DU4475 cells, 0.0048 µM.
The corresponding values for `CN[C@H]1CC[C@H](Nc2c(C(C)=O)cnc3ccc(-c4cc(Cl)c(O)c(OC)c4)cc23)CC1` [Example 542] are 0.0043 µM, 0.078 µM, 0.1 µM, 1.7 µM and 0.069 µM.
For the compound `CCCC(=O)c1cnc2ccc(-c3cc(F)c(O)c(Cl)c3)cc2c1N[C@H]1CC[C@H](N)CC1` [Example 532, 1-(4-((trans-4-aminocyclohexyl)amino)-6-(3-chloro-5-fluoro-4-hydroxyphenyl)quinolin-3-yl)butan-1-one], the IC50 on MELK (setting [1]) turned out to be 0.017 µM; with T47D cells, 0.046 µM; in the test with A549 cells it was 0.49 µM; in the test on HT-1197 cells, 2.9 µM; in the test with DU4475 cells it was 0.03 µM.
With `O=C(c1cnc2ccc(-c3cc(F)c(O)c(Cl)c3)cc2c1N[C@H]1CC[C@H](CN2CC[C@@H](F)C2)CC1)C1CC1` [Example 570, (6-(3-chloro-5-fluoro-4-hydroxyphenyl)-4-((trans-4-(((R)-3-fluoropyrrolidin-1-yl)methyl)cyclohexyl)amino)quinolin-3-yl)(cyclopropyl)methanone], the IC50 on MELK (setting [1]) worked out at 0.016 µM; with T47D cells, 0.14 µM; in the test on A549 cells it was 0.13 µM; with HT-1197 cells, 0.16 µM; in the test on DU4475 cells, 0.089 µM.
With `CCCC(=O)c1cnc2ccc(-c3cnc(C#N)nc3)cc2c1Nc1ccc(CN(C)C)cc1` [Example 539, 5-(3-butyryl-4-(4-((dimethylamino)methyl)phenylamino)quinolin-6-yl)pyrimidine-2-carbonitrile], the IC50 on MELK (setting [1]) was found to be 0.0038 µM; in the test on T47D cells, 0.37 µM; with A549 cells, 1.6 µM; with HT-1197 cells it was 1.6 µM; in the test with DU4475 cells, 1.5 µM.
For the compound `COc1cc(-c2ccc3ncc(C(=O)C4CC4)c(Nc4ccc(NC5CCCNC5)nc4)c3c2)cc(Cl)c1O` (stereo not shown) [Example 609, (6-(3-chloro-4-hydroxy-5-methoxyphenyl)-4-(6-(piperidin-3-ylamino)pyridin-3-ylamino)quinolin-3-yl)(cyclopropyl)methanone], the IC50 was 0.0025 µM on MELK (setting [1]); 0.22 µM with T47D cells; 0.68 µM in the test on A549 cells; 3.9 µM in the test with HT-1197 cells; 0.34 µM in the test with DU4475 cells.
In the case of `COc1cc(-c2ccc3ncc(C(=O)C4CC4)c(Nc4ccc(N)nc4)c3c2)cc(Cl)c1O` [Example 589, (4-(6-aminopyridin-3-ylamino)-6-(3-chloro-4-hydroxy-5-methoxyphenyl)quinolin-3-yl)(cyclopropyl)methanone], the IC50 at MELK (setting [1]) is 0.011 µM; with T47D cells it was 0.61 µM; in the test with A549 cells it was 0.18 µM; in the test with HT-1197 cells, 1.4 µM; in the test with DU4475 cells, 0.21 µM.
